The source of these data is ChEMBL document CHEMBL1949661, “Hit to lead evaluation of 1,2,3-triazolo[4,5-b]pyridines as PIM kinase inhibitors” (Bioorg Med Chem Lett, 2012).

Series [1] in a line: Metabolic stability in human liver microsomes assessed as compound remaining at 1 uM after 15 mins. In kind it is ADME, Microsome. Conditions: read-out: Stability.
The nature of series [2]: Metabolic stability in CD-1 mouse liver microsomes assessed as compound remaining at 1 uM after 15 mins. In kind it is ADME, Microsome. Conditions: read-out: Stability.
A short description of series [3]: Metabolic stability in Sprague-Dawley rat liver microsomes assessed as compound remaining at 1 uM after 15 mins. In kind it is ADME, Microsome. Conditions: read-out: Stability.
Series [4] is described as follows: Half life in BALB/C mouse plasma at 5 mg/kg, iv. Format: ADME, organism-based. The arrangement: dose 5 mg/kg, route intravenous.
A short description of series [5]: Plasma clearance in BALB/C mouse at 5 mg/kg, iv. In kind it is ADME, organism-based. Details: dose 5 mg/kg, route intravenous.

With `COc1cc(NCC2CCNCC2)nc2c1nnn2-c1cccc(OC(F)(F)F)c1`, the values for the remaining at […], 1 µM in series [1], in series [2] and in series [3] were 97%, 80% and 91%, respectively. Besides, the half-life in series [4] was 57 min. For the same compound, the clearance in series [5] was 54.7 mL/min/kg.
